target: T1, CCR9 (Homo sapiens, UniProt P51686); experiment: FLIPR calcium flux assay using MOLT4 cells (TECK stimulation); format: cell-based; parameters: endogenous in cells; host or cells: MOLT4 (human T-cell line); settings: MOLT4 cells (a human T-cell line); Ki determined from IC50 of TECK-induced intracellular calcium increase
T1 sequence (P51686 1-369): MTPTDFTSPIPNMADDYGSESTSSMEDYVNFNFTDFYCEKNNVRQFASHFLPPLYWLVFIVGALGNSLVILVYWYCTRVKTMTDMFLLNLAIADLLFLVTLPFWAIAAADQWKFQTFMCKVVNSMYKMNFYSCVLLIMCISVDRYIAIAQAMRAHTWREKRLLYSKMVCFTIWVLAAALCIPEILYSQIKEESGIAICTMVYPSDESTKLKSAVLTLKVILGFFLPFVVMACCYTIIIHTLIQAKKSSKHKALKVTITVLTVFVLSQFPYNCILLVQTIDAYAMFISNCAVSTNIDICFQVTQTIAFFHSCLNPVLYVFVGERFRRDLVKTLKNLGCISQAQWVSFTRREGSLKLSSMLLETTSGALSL
Method: Biological Activity: FLIPR Assay Using MOLT4 Cells
A calcium flux assay was used to determine the ability of the compounds to interfere with the binding between CCR9 and its chemokine ligand (TECK) in MOLT4 cells (a human T-cell line). MOLT4 cells were seeded (100,000 cells/well) in coming cell culture plates (Cat #3603) in assay buffer (lx HBSS, 20 mM HEPES) containing 2.5 mM Probenecid. The plate was centrifuged at 1200 rpm for 3 minutes and incubated at 37° C./5% CO2 for 2 hours. A 0.3× Fluo-4 NW calcium dye was prepared in assay buffer containing 5 mM Probenecid and stored in the dark. Each well was loaded with 25 μL of 0.3× Fluo-4 NW calcium dye and incubated at 37 C/5% CO2 for 60 minutes and then at room temperature for 30 minutes. A half-log serially diluted concentration response curve was prepared at a 4× concentration for each (10 μM-0.1 nM final assay concentration) and 25 μL of the compound then transferred to the cells (100 μL final volume) for 60 minutes prior to stimulation (30 minutes at 37° C./5% CO2 and 30 minutes at room temperature). TECK was diluted to 5× its EC50 in assay buffer (containing 0.1% [w/v] bovine serum albumin [BSA]) and 25 μL dispensed through the FLIPR instrument to stimulate the cells (125 μL final volume). The increased in intracellular calcium levels was measured with the FLIPR instrument. The potency of the compound as CCR9 antagonist was calculated as an IC50 using GraphPad Prism software (variable slope four parameter). The Ki of the compound was determined from the IC50 values using the following equation.
Ki calculation: IC50/1+(Agonist (TECK) conc. used in assay/EC50 of agonist (TECK) generated on day of experiment)

SMILES	Ki [µM]
CCOc1ccc(-c2cc3c(Cl)ccc(NS(=O)(=O)c4ccc(C(C)(C)C)cc4)n3n2)cn1 [Compound 194]	0.11
CCc1cc2nccc(NS(=O)(=O)c3ccc(Cl)c(C(F)(F)F)c3)n2n1 [Compound 87]	3.23
CC(C)(C)c1ccc(S(=O)(=O)Nc2ccnc3cc(-c4cccnc4)nn23)cc1 [Compound 62, 4-(tert-butyl)-N-(2-(pyridin-3-yl)pyrazolo[1,5-a]pyrimidin-7-yl)benzenesulfonamide]	0.253
Cc1cc2nccc(NS(=O)(=O)c3ccc(OC(F)F)cc3)n2n1 [Compound 33]	1.21
O=S(=O)(Nc1ccnc2cc(-c3ccc(Cl)cc3)nn12)c1ccc(-c2cnco2)cc1 [Compound 90]	1.38
CC(C)(C)c1cccc(S(=O)(=O)Nc2ccnc3cc(C4CC4)nn23)c1 [Compound 44]	1.42
COc1ccc(NS(=O)(=O)c2ccc(C(C)(C)C)cc2)n2nc(-c3cccnc3)cc12 [Compound 173, 4-(tert-butyl)-N-(4-methoxy-2-(pyridin-3-yl)pyrazolo[1,5-a]pyridin-7-yl)benzenesulfonamide]	0.377
Cc1cc2nccc(NS(=O)(=O)c3ccc(C(F)(F)F)cc3)n2n1 [Compound 23]	1.7
COc1cc(-c2cc3c(Cl)ccc(NS(=O)(=O)c4ccc(C(C)C)cc4)n3n2)c[n+]([O-])c1 [Compound 126]	0.073
COc1cncc(-c2cc3c(Cl)ccc(NS(=O)(=O)c4ccc(C(F)(F)F)cc4)n3n2)c1 [Compound 128]	0.17
O=S(=O)(Nc1ccc(Cl)c2cc(-c3cccnc3)nn12)c1ccc(OC(F)(F)F)cc1 [Compound 112]	0.092
Cc1cc2nccc(NS(=O)(=O)c3ccc(N4CCOCC4)cc3)n2n1 [Compound 22]	4
O=S(=O)(Nc1ccc(Cl)c2cc(-c3cncc(F)c3)nn12)c1ccc(C(F)(F)F)cc1 [Compound 133]	0.182
CC(C)(C)c1ccc(S(=O)(=O)Nc2ccc(Cl)c3cc(-c4cncc(F)c4)nn23)cc1 [Compound 132]	0.171
O=S(=O)(Nc1ccnc2cc(C3CC3)nn12)c1ccc(OC(F)(F)F)cc1 [Compound 42]	1.59
Cc1cc2nccc(NS(=O)(=O)c3cccc(C(C)(C)C)c3)n2n1 [Compound 32]	1.78
CCc1cc2c(Cl)ccc(NS(=O)(=O)c3ccc(C(F)(F)F)cc3)n2n1 [Compound 106]	0.177
O=S(=O)(Nc1ccnc2cc(C3CC3)nn12)c1ccc(C(F)(F)F)cc1 [Compound 41]	1.88
CC(C)(C)c1ccc(S(=O)(=O)Nc2ccc(C#N)c3cc(-c4ccccn4)nn23)cc1 [Compound 193]	0.081
COc1ccc(-c2cc3c(C#N)ccc(NS(=O)(=O)c4ccc(C(C)(C)C)cc4)n3n2)c(OC)n1 [Compound 210]	0.149
O=S(=O)(Nc1ccc(Cl)c2cc(C3CC3)nn12)c1ccc(Cl)c(C(F)(F)F)c1 [Compound 108]	0.456
CC(C)(C)c1ccc(S(=O)(=O)Nc2ccc(C#N)c3cc(-c4cncc(C#N)c4)nn23)cc1 [Compound 154, 4-(tert-butyl)-N-(4-cyano-2-(5-cyanopyridin-3-yl)pyrazolo[1,5-a]pyridin-7-yl)benzenesulfonamide]	0.076

SMILES	Ki [µM]
O=S(=O)(Nc1ccnc2cc(C3CC3)nn12)c1cccc(C(F)(F)F)c1 [Compound 39]	5.89
CCOc1ccc(-c2cc3c(C#N)ccc(NS(=O)(=O)c4ccc(C(C)(C)C)cc4)n3n2)cn1 [Compound 195]	0.034
Cc1c(-c2cc3c(Cl)ccc(NS(=O)(=O)c4ccc(C(C)(C)C)cc4)n3n2)cnn1C [Compound 187]	0.318
Cn1nccc1-c1cc2c(Cl)ccc(NS(=O)(=O)c3ccc(C(C)(C)C)cc3)n2n1 [Compound 143]	0.105
O=S(=O)(Nc1ccnc2cc(C3CC3)nn12)c1cccc(OC(F)(F)F)c1 [Compound 50]	3.75
CCn1cc(-c2cc3c(Cl)ccc(NS(=O)(=O)c4ccc(C(C)(C)C)cc4)n3n2)cn1 [Compound 185]	0.116
O=S(=O)(Nc1ccnc2cc(C3CC3)nn12)c1ccc(OC(F)F)cc1 [Compound 51]	3.2
CC(C)(C#N)c1ccc(S(=O)(=O)Nc2ccc(Cl)c3cc(-c4cccnc4)nn23)cc1 [Compound 123]	0.219
Cn1cc(-c2cc3c(Br)ccc(NS(=O)(=O)c4ccc(C(C)(C)C)cc4)n3n2)cn1 [Compound 165, 4-(tert-butyl)-N-(4-bromo-2-(1-methyl-1H-pyrazol-4-yl)pyrazolo[1,5-a]pyridin-7-yl)benzenesulfonamide]	0.129
Cc1cc2nccc(NS(=O)(=O)c3ccc(Br)cc3)n2n1 [Compound 28]	6.19
O=S(=O)(Nc1ccc(Cl)c2cc(-c3cccnc3)nn12)c1ccc(F)cc1 [Compound 115]	0.64
CC(C)(C)c1ccc(S(=O)(=O)Nc2ccc(C#N)c3cc(-c4ccncc4)nn23)cc1 [Compound 150]	0.039
CC(C)(C)c1ccc(S(=O)(=O)Nc2ccnc3cc(-c4ccc(C#N)cc4)nn23)cc1 [Compound 75, 4-(tert-butyl)-N-(2-(4-cyanophenyl)pyrazolo[1,5-a]pyrimidin-7-yl)benzenesulfonamide]	1.55
COc1ccc(-c2cc3c(Cl)ccc(NS(=O)(=O)c4ccc(C(C)(C)C)cc4)n3n2)cn1 [Compound 197]	0.189
CC(C)c1cc2c(Cl)ccc(NS(=O)(=O)c3ccc(C(F)(F)F)cc3)n2n1 [Compound 101]	0.492
Cc1ccncc1-c1cc2c(Cl)ccc(NS(=O)(=O)c3ccc(C(C)(C)C)cc3)n2n1 [Compound 208]	0.088
COc1cncc(-c2cc3c(Br)ccc(NS(=O)(=O)c4ccc(C(C)(C)C)cc4)n3n2)c1 [Compound 160]	0.17
O=S(=O)(Nc1ccc(Cl)c2cc(-c3ccc[n+]([O-])c3)nn12)c1ccc(OC(F)(F)F)cc1 [Compound 116]	1.03
COc1cncc(-c2cc3c(Cl)ccc(NS(=O)(=O)c4ccc(C(C)(C)C)cc4)n3n2)c1 [Compound 127]	0.192
COc1ncccc1-c1cc2c(Cl)ccc(NS(=O)(=O)c3ccc(C(C)(C)C)cc3)n2n1 [Compound 201]	0.192
CC(C)(C)c1ccc(S(=O)(=O)Nc2ccc(C#N)c3cc(-c4cnco4)nn23)cc1 [Compound 170, 4-(tert-butyl)-N-(4-cyano-2-(oxazol-5-yl)pyrazolo[1,5-a]pyridin-7-yl)benzenesulfonamide]	0.027
CC(C)(C)c1ccc(S(=O)(=O)Nc2ccc(Cl)c3cc(-c4cnccn4)nn23)cc1 [Compound 188]	0.194

— patent US20170002011A1, “BENZENE SULFONAMIDES AS CCR9 INHIBITORS” (NORGINE B.V., priority 2013, published 2017)
